Results: patent US20230398130A1, “METHODS AND COMPOSITIONS FOR DIFFERENTIATING STEM CELLS” (Massachusetts Institute of Technology, priority 2020, published 2023)

Key:
ISC-enriched organoids [1] = test: Primary screen, 384-well 2.5-D organoid differentiation (ENR+CD, 6 days): basal lysozyme secretion (LYZ.NS); assay type: cell-based, murine; conditions: for Dose.FC.LYZ.NS / Z.LYZ.NS / SSMD.LYZ.NS: primary screen; for Dose.FC.LYZ.NS: FC vs plate median; for SSMD.LYZ.NS: strictly standardized mean difference
Description: (§1) High-throughput screening.

ISC-enriched organoids [2] = test: Primary screen, 384-well 2.5-D organoid differentiation (ENR+CD, 6 days, Target Selective Inhibitor Library, vs whole-plate median): ATP (CellTiter-Glo 3D, CTG); conditions: for Dose.FC.CTG / Z.CTG / SSMD.CTG: primary screen; for Dose.FC.CTG: FC vs plate median; for SSMD.CTG: strictly standardized mean difference
ISC-enriched organoids [3] = test: Primary screen, 384-well 2.5-D organoid differentiation (ENR+CD, 6 days): carbachol-induced lysozyme secretion (LYZ.S); assay type: cell-based, murine; conditions: for Dose.FC.LYZ.S / Z.LYZ.S / SSMD.LYZ.S: primary screen; for Dose.FC.LYZ.S: FC vs plate median; for Z.LYZ.S: standard z score; for SSMD.LYZ.S: strictly standardized mean difference
Description: as §1

[4] = dose 0.08 uM (1st of 4 lines per treatment; dose not printed in this part)
[5] = dose 0.40 uM (2nd of 4 lines per treatment; dose not printed in this part)
[6] = dose 2.00 uM (3rd of 4 lines per treatment; dose not printed in this part)
[7] = dose 10.00 uM (4th of 4 lines per treatment; dose not printed in this part)
[8] = dose 0.08 uM, standard z score of FC
[9] = dose 0.40 uM, standard z score of FC
[10] = dose 2.00 uM, standard z score of FC
[11] = dose 10.00 uM, standard z score of FC
[12] = Dose 10.00 uM, standard z score
[13] = 1st of the 4 dose lines of the treatment (dose not given)
[14] = 2nd of the 4 dose lines of the treatment (dose not given)
[15] = 3rd of the 4 dose lines of the treatment (dose not given)
[16] = 4th of the 4 dose lines of the treatment (dose not given)

`O=C(O)C(Cc1ccccc1[N+](=O)[O-])=NNc1nc(-c2ccc(Cl)c(Cl)c2)cs1` (mixture of isomers) [4EGI-1] was tested, and the “SSMD.LYZ.NS_Rep (strictly standardized mean difference)” value (ISC-enriched organoids [1]; [4]) was 0.378, the “SSMD.LYZ.NS_Rep (strictly standardized mean difference)” value (ISC-enriched organoids [1]; [5]) was 0.264 and the “SSMD.LYZ.NS_Rep (strictly standardized mean difference)” value (ISC-enriched organoids [1]; [6]) was 0.252. The “SSMD.LYZ.NS_Rep (strictly standardized mean difference)” value (ISC-enriched organoids [1]; [7]) was −0.257, the Dose.FC.LYZ.NS (ISC-enriched organoids [1]; dose 0.08 uM, ENR+CD 6 days) was 0.110 log 2 fold change and the Z.LYZ.NS (ISC-enriched organoids [1]; [8]) was 0.956. For the same molecule, the Dose.FC.LYZ.NS (ISC-enriched organoids [1]; dose 0.40 uM, ENR+CD 6 days) was 0.036 log 2 fold change, the Z.LYZ.NS (ISC-enriched organoids [1]; [9]) was 0.315 and the Dose.FC.LYZ.NS (ISC-enriched organoids [1]; dose 2.00 uM, ENR+CD 6 days) was 0.069 log 2 fold change. The Z.LYZ.NS (ISC-enriched organoids [1]; [10]) was 0.597, the Dose.FC.LYZ.NS (ISC-enriched organoids [1]; dose 10.00 uM, ENR+CD 6 days) was −0.034 log 2 fold change and the Z.LYZ.NS (ISC-enriched organoids [1]; [11]) was −0.300. For the same molecule, the “SSMD.CTG_Rep (strictly standardized mean difference)” value (ISC-enriched organoids [2]; [4]) was −0.352, the “SSMD.CTG_Rep (strictly standardized mean difference)” value (ISC-enriched organoids [2]; [5]) was −0.158 and the “SSMD.CTG_Rep (strictly standardized mean difference)” value (ISC-enriched organoids [2]; [6]) was 0.407. The “SSMD.CTG_Rep (strictly standardized mean difference)” value (ISC-enriched organoids [2]; [7]) was −0.283, the Dose.FC.CTG (ISC-enriched organoids [2]; dose 0.08 uM, ENR+CD 6 days) was −0.160 log 2 fold change and the Z.CTG (ISC-enriched organoids [2]; [8]) was −0.383. For the same molecule, the Dose.FC.CTG (ISC-enriched organoids [2]; dose 0.40 uM, ENR+CD 6 days) was −0.131 log 2 fold change, the Z.CTG (ISC-enriched organoids [2]; [9]) was −0.314 and the Dose.FC.CTG (ISC-enriched organoids [2]; dose 2.00 uM, ENR+CD 6 days) was 0.127 log 2 fold change. It also gave a Z.CTG (ISC-enriched organoids [2]; [10]) of 0.304, a Dose.FC.CTG (ISC-enriched organoids [2]; dose 10.00 uM, ENR+CD 6 days) of −0.109 log 2 fold change and a Z.CTG (ISC-enriched organoids [2]; [11]) of −0.261. For the same molecule, the “SSMD.LYZ.S_Rep (strictly standardized mean difference)” value (ISC-enriched organoids [3]; [4]) was −0.264, the “Z.LYZ.S (standard z score)” value (ISC-enriched organoids [3]; [4]) was −0.236 and the “SSMD.LYZ.S_Rep (strictly standardized mean difference)” value (ISC-enriched organoids [3]; [5]) was 0.326. The “Z.LYZ.S (standard z score)” value (ISC-enriched organoids [3]; [5]) was 0.352, the “SSMD.LYZ.S_Rep (strictly standardized mean difference)” value (ISC-enriched organoids [3]; [6]) was −0.328 and the “Z.LYZ.S (standard z score)” value (ISC-enriched organoids [3]; [6]) was −0.380. For the same molecule, the “SSMD.LYZ.S_Rep (strictly standardized mean difference)” value (ISC-enriched organoids [3]; [7]) was 0.189, the “Z.LYZ.S (standard z score)” value (ISC-enriched organoids [3]; [7]) was 0.366 and the Dose.FC.LYZ.S (ISC-enriched organoids [3]; dose 0.08 uM, ENR+CD 6 days) was −0.037 log 2 fold change. For the same molecule, the Dose.FC.LYZ.S (ISC-enriched organoids [3]; dose 0.40 uM, ENR+CD 6 days) was 0.054 log 2 fold change, the Dose.FC.LYZ.S (ISC-enriched organoids [3]; dose 2.00 uM, ENR+CD 6 days) was −0.059 log 2 fold change and the Dose.FC.LYZ.S (ISC-enriched organoids [3]; dose 10.00 uM, ENR+CD 6 days) was 0.057 log 2 fold change.

Molecule `C[C@H](NC(=O)[C@@H](O)c1cc(F)cc(F)c1)C(=O)N[C@@H]1C(=O)N(C)c2ccccc2-c2ccccc21` [LY411575] has a Dose.FC.LYZ.NS (ISC-enriched organoids [1]; Dose 0.08 uM) of 0.040 log 2 fold change, a Z.LYZ.NS (ISC-enriched organoids [1]; Dose 0.08 uM, standard z score) of 0.347 and a Dose.FC.LYZ.NS (ISC-enriched organoids [1]; Dose 0.40 uM) of −0.050 log 2 fold change. The Z.LYZ.NS (ISC-enriched organoids [1]; Dose 0.40 uM, standard z score) was −0.434, the Dose.FC.LYZ.NS (ISC-enriched organoids [1]; Dose 2.00 uM) was −0.069 log 2 fold change and the Z.LYZ.NS (ISC-enriched organoids [1]; Dose 2.00 uM, standard z score) was −0.598. It also gave a Dose.FC.LYZ.NS (ISC-enriched organoids [1]; Dose 10.00 uM) of −0.109 log 2 fold change, a Z.LYZ.NS (ISC-enriched organoids [1]; [12]) of −0.949 and an SSMD.LYZ.NS (ISC-enriched organoids [1]; [13]) of 0.217. It also gave an SSMD.LYZ.NS (ISC-enriched organoids [1]; [14]) of −0.432, an SSMD.LYZ.NS (ISC-enriched organoids [1]; [15]) of −0.593 and an SSMD.LYZ.NS (ISC-enriched organoids [1]; [16]) of −0.931. For the same molecule, the Dose.FC.CTG (ISC-enriched organoids [2]; Dose 0.08 uM) was 0.035 log 2 fold change, the Z.CTG (ISC-enriched organoids [2]; Dose 0.08 uM, standard z score) was 0.083 and the Dose.FC.CTG (ISC-enriched organoids [2]; Dose 0.40 uM) was −0.172 log 2 fold change. The Z.CTG (ISC-enriched organoids [2]; Dose 0.40 uM, standard z score) was −0.411, the Dose.FC.CTG (ISC-enriched organoids [2]; Dose 2.00 uM) was −0.172 log 2 fold change and the Z.CTG (ISC-enriched organoids [2]; Dose 2.00 uM, standard z score) was −0.412. For the same molecule, the Dose.FC.CTG (ISC-enriched organoids [2]; Dose 10.00 uM) was −0.259 log 2 fold change, the Z.CTG (ISC-enriched organoids [2]; [12]) was −0.618 and the SSMD.CTG (ISC-enriched organoids [2]; [13]) was 0.086. It also gave an SSMD.CTG (ISC-enriched organoids [2]; [14]) of −0.312, an SSMD.CTG (ISC-enriched organoids [2]; [15]) of −0.389 and an SSMD.CTG (ISC-enriched organoids [2]; [16]) of −0.550. The Dose.FC.LYZ.S (ISC-enriched organoids [3]; Dose 0.08 uM) was 0.024 log 2 fold change, the Dose.FC.LYZ.S (ISC-enriched organoids [3]; Dose 0.40 uM) was 0.041 log 2 fold change and the Dose.FC.LYZ.S (ISC-enriched organoids [3]; Dose 2.00 uM) was −0.091 log 2 fold change. It also gave a Dose.FC.LYZ.S (ISC-enriched organoids [3]; Dose 10.00 uM) of −0.157 log 2 fold change, a Z.LYZ.S (ISC-enriched organoids [3]; [13]) of 0.155 and a Z.LYZ.S (ISC-enriched organoids [3]; [14]) of 0.266. It also gave a Z.LYZ.S (ISC-enriched organoids [3]; [15]) of −0.590, a Z.LYZ.S (ISC-enriched organoids [3]; [16]) of −1.015 and an SSMD.LYZ.S (ISC-enriched organoids [3]; [13]) of 0.094. For the same molecule, the SSMD.LYZ.S (ISC-enriched organoids [3]; [14]) was 0.171, the SSMD.LYZ.S (ISC-enriched organoids [3]; [15]) was −0.596 and the SSMD.LYZ.S (ISC-enriched organoids [3]; [16]) was −0.917.

Work on `CN(C)C(=O)c1ccc(S(=O)(=O)c2ccc(NC(=O)[C@@](C)(O)C(F)(F)F)c(Cl)c2)cc1` [AZD7545] yielded a Dose.FC.LYZ.NS (ISC-enriched organoids [1]; dose 0.08 uM, ENR+CD 6 days) of 0.087 log 2 fold change, a Z.LYZ.NS (ISC-enriched organoids [1]; [8]) of 0.758 and a Dose.FC.LYZ.NS (ISC-enriched organoids [1]; dose 0.40 uM, ENR+CD 6 days) of −0.028 log 2 fold change. The Z.LYZ.NS (ISC-enriched organoids [1]; [9]) was −0.245, the Dose.FC.LYZ.NS (ISC-enriched organoids [1]; dose 2.00 uM, ENR+CD 6 days) was −0.018 log 2 fold change and the Z.LYZ.NS (ISC-enriched organoids [1]; [10]) was −0.155. It also gave a Dose.FC.LYZ.NS (ISC-enriched organoids [1]; dose 10.00 uM, ENR+CD 6 days) of −0.051 log 2 fold change, a Z.LYZ.NS (ISC-enriched organoids [1]; [11]) of −0.441 and a Dose.FC.CTG (ISC-enriched organoids [2]; dose 0.08 uM, ENR+CD 6 days) of −0.334 log 2 fold change. It also gave a Z.CTG (ISC-enriched organoids [2]; [8]) of −0.798, a Dose.FC.CTG (ISC-enriched organoids [2]; dose 0.40 uM, ENR+CD 6 days) of −0.158 log 2 fold change and a Z.CTG (ISC-enriched organoids [2]; [9]) of −0.378. It also gave a Dose.FC.CTG (ISC-enriched organoids [2]; dose 2.00 uM, ENR+CD 6 days) of −0.255 log 2 fold change, a Z.CTG (ISC-enriched organoids [2]; [10]) of −0.608 and a Dose.FC.CTG (ISC-enriched organoids [2]; dose 10.00 uM, ENR+CD 6 days) of −0.350 log 2 fold change. The Z.CTG (ISC-enriched organoids [2]; [11]) was −0.836, the Dose.FC.LYZ.S (ISC-enriched organoids [3]; dose 0.08 uM, ENR+CD 6 days) was 0.111 log 2 fold change and the Dose.FC.LYZ.S (ISC-enriched organoids [3]; dose 0.40 uM, ENR+CD 6 days) was −0.017 log 2 fold change. It also gave a Dose.FC.LYZ.S (ISC-enriched organoids [3]; dose 2.00 uM, ENR+CD 6 days) of −0.148 log 2 fold change and a Dose.FC.LYZ.S (ISC-enriched organoids [3]; dose 10.00 uM, ENR+CD 6 days) of −0.104 log 2 fold change.
